Activity calls are given as the source filed them.
How the values were obtained:
Melanocortin receptor 4 = Melanocortin receptor 4 (Homo sapiens, UniProt P32245); assay: inhibitors of MC4R cAMP signaling – cell-based, TR-FRET, biased antagonists, dose response (AID 602298); type: functional;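 further: antagonist potency against agonist-stimulated cAMP production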
[1] = target: T1, Kappa-type opioid receptor (Homo sapiens, UniProt P41145); type: functional
Beta-galactosidase = Beta-galactosidase (Escherichia coli, UniProt Q8VNN2); type: functional
INS1 = assay: INS-1E survival protection against cytokine death – cell-based, luminescence, retest, dose response (AID 449756); type: functional; settings: Rattus norvegicus;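 further: cell death triggered by IL-1 beta plus TNF-alpha plus IFN-gamma mixture; protective hits raise ATP signal compared with cytokine alone wells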
[2] = target: T2, Sphingosine 1-phosphate receptor 4 (Homo sapiens, UniProt O95977); assay: Fluorescence dose response cell-based high throughput screening assay for antagonists of the Sphingosine 1-Phosphate Receptor 4 (S1P4). [Related pubchem assays: 1524 (Confirmation in triplicates.), 1510 (Primary screen.)]; type: functional
T2 sequence (O95977 whole entry): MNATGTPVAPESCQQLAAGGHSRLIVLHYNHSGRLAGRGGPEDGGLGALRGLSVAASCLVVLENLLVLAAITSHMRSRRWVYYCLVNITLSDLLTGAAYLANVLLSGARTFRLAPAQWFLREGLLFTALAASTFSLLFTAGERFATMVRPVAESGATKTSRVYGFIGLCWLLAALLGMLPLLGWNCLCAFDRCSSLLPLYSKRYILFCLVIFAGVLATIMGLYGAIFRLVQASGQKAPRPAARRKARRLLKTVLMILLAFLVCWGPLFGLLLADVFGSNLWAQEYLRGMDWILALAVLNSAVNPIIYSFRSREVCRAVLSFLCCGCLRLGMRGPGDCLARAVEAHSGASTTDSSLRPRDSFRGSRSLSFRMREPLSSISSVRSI

[3] = target: T1, Kappa-type opioid receptor; type: functional; remark: listed apart in the source
[4] = target: Sphingosine 1-phosphate receptor 1 (Homo sapiens, UniProt P21453); type: functional;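 further: Tango beta-arrestin reporter U2OS cells stimulated with S1P near its EC80; inhibitor potency meaning antagonism of receptor activation by the natural agonist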
[5] = luciferase reporter signal suppression in cells – H4 neuroglioma cells, luminescence, dose response (AID 1990); type: functional, cell-based
[6] = alpha-synuclein stem-loop luciferase translation blockers – H4 neuroglioma cells, luminescence, confirmation (AID 1988); type: functional, cell-based
[7] = Luminescence Cell-Based Dose Response HTS to Identify Inhibitors of 5'UTR Stem-Loop Driven Prion Protein mRNA Translation in H4 Neuroglioblastoma Cells. [Related pubchem assays: 1827 (Project Summary), 1813 (Primary HTS)]; type: functional
[8] = cAMP pathway inhibition in counterscreen cell line – TR-FRET cAMP detection, counter-screen for MC4R biased antagonist project, dose response (AID 602305); type: functional, cell-based;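 further: U2OS cells stimulated with forskolin near its EC80 as the cAMP inducer; potency is for inhibition of forskolin-stimulated cAMP signaling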
[9] = target: T3, E3 ubiquitin-protein ligase XIAP (Homo sapiens, UniProt P98170); assay: small molecules displacing peptide from XIAP – biochemical, IAP family, fluorescence polarization (AID 1018); type: functional
[10] = target: T3, E3 ubiquitin-protein ligase XIAP; assay: Counter Screen using XIAP-Bir3 for Chemical Antagonists of Bir1/2 domains of IAP-family anti-apoptotic proteins. [Related pubchem assays (depositor defined):AID1018, AID1449, AID1514, AID1638, AID1749, AID1750, AID488957, AID488963]
[11] = Luminescence-based cell-based high throughput dose response assay to identify activators of the DAF-12 from the parasite S. stercoralis (ssDAF-12).; type: functional
[12] = target: Peroxisome proliferator-activated receptor gamma/Nuclear receptor coactivator 3 (Homo sapiens, UniProt P37231); assay: TR-FRET dose response biochemical High Throughput Screening assay for agonists of the steroid receptor coactivator 3 (SRC-3) recruitment by the peroxisome proliferator-activated receptor gamma (PPAR gamma): non-selective agonists. [Related pubchem assays: 1301 (Confirmation screen.), 1048 (Primary screen.)]; type: functional
[13] = target: Peroxisome proliferator-activated receptor gamma/Nuclear receptor coactivator 1 (Homo sapiens, UniProt P37231); assay: TR-FRET dose response biochemical High Throughput Screening assay for agonists of the steroid receptor coactivator 1 (SRC-1) recruitment by the peroxisome proliferator-activated receptor gamma (PPAR gamma): non-selective agonists. [Related pubchem assays (depositor defined):AID1300, AID1808, AID504735, AID631]; type: protein assay
[14] = target: Peroxisome proliferator-activated receptor gamma/Nuclear receptor coactivator 2 (Homo sapiens, UniProt P37231); assay: TR-FRET dose response biochemical High Throughput Screening assay for agonists of the steroid receptor coactivator 2 (SRC-2) recruitment by the peroxisome proliferator-activated receptor gamma (PPAR gamma): non-selective agonists. [Related pubchem assays: 1297, 1032 ]; type: functional
HEK293 [15] = assay: NOD2 signaling inhibitors in MDP-stimulated cells, cell-based, uHTS, luminescence (AID 2001); type: functional; settings: Homo sapiens
[16] = target: Nucleotide-binding oligomerization domain-containing protein 2 (Homo sapiens, UniProt Q9HC29); assay: inhibition of NOD2-driven NF-kB reporter – cell-based, luminescence, uHTS, HEK293 (AID 1566); type: functional
HEK293 [17] = assay: inhibition of NOD1-driven NF-kB reporter – cell-based, luminescence, uHTS, primary screen (AID 1578); type: functional; settings: Homo sapiens
HEK293 [18] = assay: cells; type: functional, cell-based; settings: Homo sapiens
HEK293 [19] = assay: cells; type: functional, cell-based; settings: Homo sapiens; remark: listed apart in the source
HEK293 [20] = assay: cells; type: functional, cell-based; settings: Homo sapiens; remark: listed apart in the source
[21] = target: Induced myeloid leukemia cell differentiation protein Mcl-1 (Homo sapiens, UniProt Q07820); type: functional
SUMO-activating enzyme [22] = target: T4, SUMO-activating enzyme (Homo sapiens, UniProt Q9UBT2); assay: blockers of SAE1/SAE2–UBC9 SUMO transfer – biochemical, HTRF, uHTS, primary screen (AID 2006); type: protein-complex assay
SUMO-activating enzyme [23] = target: T4, SUMO-activating enzyme; assay: blockers of UBC9-mediated SUMO conjugation – biochemical, AlphaScreen, SUMOylation inhibitor project, confirmation (AID 2018); type: functional
[24] = HEK-293T cell viability reduction – luminescence, B-cell screen hits, cytotoxicity control for BCR NF-kB inhibitor project, dose response (AID 489021); type: functional, cell-based;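 further: HEK-293T cells carrying an NF-kB luciferase reporter; cells exposed to compound for about 14 hours before viability readout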
[25] = activation of miR-122 Renilla sensor silencing – cell-based, Huh7 psiCHECK-miR122, Renilla luciferase, cherry-picked, dose response (AID 651956); type: functional;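 further: huh7 hepatoma cells stably carrying a psiCHECK-2 miR-122 sensor plasmid; renilla luciferase signal reporting endogenous miR-122 activity after 48 h compound exposure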
[26] = target: T5, Ubiquitin-conjugating enzyme E2 N (Homo sapiens, UniProt P61088); type: functional
T5 sequence (P61088 whole entry): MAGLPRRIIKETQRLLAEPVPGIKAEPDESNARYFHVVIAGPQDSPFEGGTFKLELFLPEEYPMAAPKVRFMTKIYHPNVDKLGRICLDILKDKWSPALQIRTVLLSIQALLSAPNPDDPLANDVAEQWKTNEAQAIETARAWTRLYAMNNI

[27] = target: T5, Ubiquitin-conjugating enzyme E2 N; type: functional; remark: listed apart in the source
[28] = general mammalian cell viability loss – activator set, cherry-pick, cytotoxicity control for miR-122 modulator project, dose response (AID 720690); type: functional, cell-based;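 further: HEK293T human cells scored for general mammalian cytotoxicity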
[29] = Trypanosoma cruzi growth suppression in host cells – NIH3T3 host cells, beta-gal luminescence, confirmation (AID 2044); type: functional, cell-based;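 further: intracellular parasites grown in NIH/3T3 mouse fibroblasts as host cells; luminescent beta-galactosidase reporter signal from transgenic T. cruzi replicating inside host cells; inhibitors lower the luminescence signal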
Bcl-2-related protein A1 = target: T6, Bcl-2-related protein A1 (Mus musculus, UniProt Q07440); type: functional;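 further: confirmatory dose–response counterscreen on Bfl-1, used to check hits from a UBC13 polyubiquitin inhibitor campaign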
T6 sequence (Q07440 whole entry): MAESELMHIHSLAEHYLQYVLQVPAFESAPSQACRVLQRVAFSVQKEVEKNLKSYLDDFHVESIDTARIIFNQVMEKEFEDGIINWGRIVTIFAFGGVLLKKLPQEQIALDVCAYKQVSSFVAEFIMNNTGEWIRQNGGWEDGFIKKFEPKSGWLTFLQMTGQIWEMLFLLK

[30] = NIH3T3 cell viability loss – ATP luminescence, mouse fibroblasts, counter-screen, dose response (AID 2010); type: functional, cell-based;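 further: cells exposed to compound for about 90 hours before reading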
[31] = target: Glyceraldehyde-3-phosphate dehydrogenase (Homo sapiens, UniProt P04406)
[32] = target: T7, Alkaline phosphatase, tissue-nonspecific isozyme (Homo sapiens, UniProt P05186); assay: potency against alkaline phosphatase TNAP – biochemical, luminescent, dose response, SAR follow-up (AID 1056)
T7 sequence (P05186 whole entry): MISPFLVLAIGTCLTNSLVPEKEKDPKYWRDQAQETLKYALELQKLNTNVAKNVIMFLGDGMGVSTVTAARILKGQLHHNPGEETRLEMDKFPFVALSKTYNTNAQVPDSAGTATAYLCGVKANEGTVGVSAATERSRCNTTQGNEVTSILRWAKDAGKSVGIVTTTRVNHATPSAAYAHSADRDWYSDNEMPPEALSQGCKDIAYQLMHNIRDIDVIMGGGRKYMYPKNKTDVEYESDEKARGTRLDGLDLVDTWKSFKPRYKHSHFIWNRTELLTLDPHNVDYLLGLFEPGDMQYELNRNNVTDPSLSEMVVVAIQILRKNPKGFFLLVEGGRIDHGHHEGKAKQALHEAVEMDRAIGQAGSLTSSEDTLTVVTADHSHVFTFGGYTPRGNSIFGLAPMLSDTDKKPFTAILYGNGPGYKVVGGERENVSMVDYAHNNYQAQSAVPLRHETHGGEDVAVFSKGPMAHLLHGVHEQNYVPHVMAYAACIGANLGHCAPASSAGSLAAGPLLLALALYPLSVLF

[33] = HepG2 cell cytotoxicity, dose response, cytotoxicity control for non-replicating M. tuberculosis project (AID 489018); type: functional; settings: Mycobacterium tuberculosis
Vasopressin V1a receptor = Vasopressin V1a receptor (Homo sapiens, UniProt P37288); assay: Counterscreen for Oxytocin Receptor (OXTR) agonists: Fluorescence-based cell-based high throughput dose response assay to identify agonists of the vasopressin 1 receptor (V1R). [Related pubchem assays: 2435 (Primary screen (OXTR agonists in singlicate)), 434991 (Counterscreen (V1R agonists in triplicate)), 2482 (Summary (OXTR agonists)) …; type: functional
[34] = THP-1 cell cytotoxicity, dose response, cytotoxicity control for non-replicating M. tuberculosis project (AID 489025); type: functional
Oxytocin receptor = Oxytocin receptor (Homo sapiens, UniProt P30559); assay: Fluorescence-based cell-based high throughput dose response assay for agonists of the Oxytocin Receptor (OXTR). [Related pubchem assays: 2435 (Primary screen (OXTR agonists in singlicate)), 434991 (Counterscreen (V1R agonists in triplicate)), 2482 (Summary (OXTR agonists)), 434963 (Confirmation screen (OXTR agonists in triplicate))]; type: functional
[35] = Vero E6 cell cytotoxicity, dose response, cytotoxicity control for non-replicating M. tuberculosis project, secondary assay (AID 492998); type: functional, VeroE6; settings: Vero C1008
cells = type: functional

T3 sequence (P98170 whole entry): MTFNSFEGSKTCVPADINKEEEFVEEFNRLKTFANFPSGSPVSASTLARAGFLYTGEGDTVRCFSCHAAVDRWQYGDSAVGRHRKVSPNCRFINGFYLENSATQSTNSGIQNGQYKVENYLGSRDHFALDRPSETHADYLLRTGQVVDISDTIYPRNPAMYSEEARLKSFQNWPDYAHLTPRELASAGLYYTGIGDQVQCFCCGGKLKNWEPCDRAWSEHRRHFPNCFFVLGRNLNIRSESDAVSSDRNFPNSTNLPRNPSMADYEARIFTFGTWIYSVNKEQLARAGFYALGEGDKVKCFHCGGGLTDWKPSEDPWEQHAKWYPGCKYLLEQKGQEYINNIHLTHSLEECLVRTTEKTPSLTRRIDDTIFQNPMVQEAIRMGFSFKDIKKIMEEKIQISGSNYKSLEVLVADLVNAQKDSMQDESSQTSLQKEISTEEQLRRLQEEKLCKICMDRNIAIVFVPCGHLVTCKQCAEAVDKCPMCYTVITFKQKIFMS
T4 sequence (Q9UBE0 whole entry): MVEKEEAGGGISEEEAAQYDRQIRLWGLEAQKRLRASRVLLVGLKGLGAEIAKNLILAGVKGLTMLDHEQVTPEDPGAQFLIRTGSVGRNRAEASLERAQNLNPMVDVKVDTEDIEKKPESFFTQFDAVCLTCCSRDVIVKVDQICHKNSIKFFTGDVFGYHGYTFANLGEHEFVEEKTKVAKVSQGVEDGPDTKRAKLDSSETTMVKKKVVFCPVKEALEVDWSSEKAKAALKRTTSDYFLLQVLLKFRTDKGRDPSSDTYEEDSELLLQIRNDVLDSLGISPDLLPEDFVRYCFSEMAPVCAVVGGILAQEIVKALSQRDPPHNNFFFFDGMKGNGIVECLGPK
T4 sequence (Q9UBT2 whole entry): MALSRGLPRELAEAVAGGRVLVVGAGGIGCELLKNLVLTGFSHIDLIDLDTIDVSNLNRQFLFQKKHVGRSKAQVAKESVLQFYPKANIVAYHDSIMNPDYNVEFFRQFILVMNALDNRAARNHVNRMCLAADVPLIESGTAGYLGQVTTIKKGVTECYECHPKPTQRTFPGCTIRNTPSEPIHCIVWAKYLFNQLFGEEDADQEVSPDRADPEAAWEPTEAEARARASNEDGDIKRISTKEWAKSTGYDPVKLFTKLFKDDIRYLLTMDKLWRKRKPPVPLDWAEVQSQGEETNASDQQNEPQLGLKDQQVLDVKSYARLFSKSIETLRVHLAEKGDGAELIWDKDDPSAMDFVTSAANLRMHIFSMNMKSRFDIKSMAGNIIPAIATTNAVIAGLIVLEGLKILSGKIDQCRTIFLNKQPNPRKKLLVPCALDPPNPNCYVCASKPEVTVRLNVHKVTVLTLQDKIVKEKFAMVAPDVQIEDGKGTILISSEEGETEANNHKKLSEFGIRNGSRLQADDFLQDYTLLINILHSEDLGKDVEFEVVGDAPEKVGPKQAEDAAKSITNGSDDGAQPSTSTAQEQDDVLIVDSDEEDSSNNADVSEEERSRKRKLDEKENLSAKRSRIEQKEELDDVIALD
T1 sequence (P41145 whole entry): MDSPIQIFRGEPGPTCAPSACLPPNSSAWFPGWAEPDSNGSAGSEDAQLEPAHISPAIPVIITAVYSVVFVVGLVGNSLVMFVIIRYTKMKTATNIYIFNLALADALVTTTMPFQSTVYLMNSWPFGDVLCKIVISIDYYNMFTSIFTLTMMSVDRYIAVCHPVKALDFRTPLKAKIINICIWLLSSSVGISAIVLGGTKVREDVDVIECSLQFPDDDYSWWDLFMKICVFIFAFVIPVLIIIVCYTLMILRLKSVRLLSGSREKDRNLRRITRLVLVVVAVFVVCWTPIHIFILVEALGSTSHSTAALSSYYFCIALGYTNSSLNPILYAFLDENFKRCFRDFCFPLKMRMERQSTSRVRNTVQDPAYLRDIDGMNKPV
Glyceraldehyde-3-phosphate dehydrogenase, sequence (P04406 whole entry): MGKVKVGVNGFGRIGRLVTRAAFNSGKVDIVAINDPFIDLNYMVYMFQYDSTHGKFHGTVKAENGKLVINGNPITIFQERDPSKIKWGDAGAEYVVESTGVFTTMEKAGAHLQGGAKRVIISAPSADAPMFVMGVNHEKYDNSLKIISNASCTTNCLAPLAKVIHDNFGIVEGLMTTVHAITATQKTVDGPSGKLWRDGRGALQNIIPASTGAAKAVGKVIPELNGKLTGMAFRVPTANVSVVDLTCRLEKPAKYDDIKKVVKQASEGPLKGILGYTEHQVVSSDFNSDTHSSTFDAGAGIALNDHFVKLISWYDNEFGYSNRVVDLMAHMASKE
Oxytocin receptor, sequence (P30559 whole entry): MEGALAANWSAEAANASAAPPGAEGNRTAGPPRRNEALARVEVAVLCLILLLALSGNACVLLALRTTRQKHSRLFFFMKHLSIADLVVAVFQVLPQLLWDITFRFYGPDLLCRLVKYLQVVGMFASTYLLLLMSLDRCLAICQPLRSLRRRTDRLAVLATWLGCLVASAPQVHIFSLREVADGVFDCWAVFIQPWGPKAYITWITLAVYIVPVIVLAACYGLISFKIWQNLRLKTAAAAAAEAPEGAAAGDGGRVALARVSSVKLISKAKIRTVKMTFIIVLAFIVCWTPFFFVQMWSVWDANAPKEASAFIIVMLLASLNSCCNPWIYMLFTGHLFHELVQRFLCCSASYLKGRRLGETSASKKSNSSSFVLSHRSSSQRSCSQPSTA
Peroxisome proliferator-activated receptor gamma/Nuclear receptor coactivator 3, sequence (P37231 whole entry): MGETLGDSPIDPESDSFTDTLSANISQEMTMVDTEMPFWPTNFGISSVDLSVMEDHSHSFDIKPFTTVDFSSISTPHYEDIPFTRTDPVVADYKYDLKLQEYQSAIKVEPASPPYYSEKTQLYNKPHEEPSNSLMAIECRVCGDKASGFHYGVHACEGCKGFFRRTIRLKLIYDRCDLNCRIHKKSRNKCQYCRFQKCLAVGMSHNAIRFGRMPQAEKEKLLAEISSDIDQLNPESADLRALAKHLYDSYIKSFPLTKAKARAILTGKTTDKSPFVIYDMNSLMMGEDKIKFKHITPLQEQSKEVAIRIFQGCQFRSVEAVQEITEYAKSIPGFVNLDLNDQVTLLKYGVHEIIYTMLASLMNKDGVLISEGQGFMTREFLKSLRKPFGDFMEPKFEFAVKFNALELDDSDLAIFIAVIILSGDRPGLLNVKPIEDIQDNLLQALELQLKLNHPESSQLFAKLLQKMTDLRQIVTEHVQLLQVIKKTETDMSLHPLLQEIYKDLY
Peroxisome proliferator-activated receptor gamma/Nuclear receptor coactivator 3, sequence (Q9Y6Q9 whole entry, further chain): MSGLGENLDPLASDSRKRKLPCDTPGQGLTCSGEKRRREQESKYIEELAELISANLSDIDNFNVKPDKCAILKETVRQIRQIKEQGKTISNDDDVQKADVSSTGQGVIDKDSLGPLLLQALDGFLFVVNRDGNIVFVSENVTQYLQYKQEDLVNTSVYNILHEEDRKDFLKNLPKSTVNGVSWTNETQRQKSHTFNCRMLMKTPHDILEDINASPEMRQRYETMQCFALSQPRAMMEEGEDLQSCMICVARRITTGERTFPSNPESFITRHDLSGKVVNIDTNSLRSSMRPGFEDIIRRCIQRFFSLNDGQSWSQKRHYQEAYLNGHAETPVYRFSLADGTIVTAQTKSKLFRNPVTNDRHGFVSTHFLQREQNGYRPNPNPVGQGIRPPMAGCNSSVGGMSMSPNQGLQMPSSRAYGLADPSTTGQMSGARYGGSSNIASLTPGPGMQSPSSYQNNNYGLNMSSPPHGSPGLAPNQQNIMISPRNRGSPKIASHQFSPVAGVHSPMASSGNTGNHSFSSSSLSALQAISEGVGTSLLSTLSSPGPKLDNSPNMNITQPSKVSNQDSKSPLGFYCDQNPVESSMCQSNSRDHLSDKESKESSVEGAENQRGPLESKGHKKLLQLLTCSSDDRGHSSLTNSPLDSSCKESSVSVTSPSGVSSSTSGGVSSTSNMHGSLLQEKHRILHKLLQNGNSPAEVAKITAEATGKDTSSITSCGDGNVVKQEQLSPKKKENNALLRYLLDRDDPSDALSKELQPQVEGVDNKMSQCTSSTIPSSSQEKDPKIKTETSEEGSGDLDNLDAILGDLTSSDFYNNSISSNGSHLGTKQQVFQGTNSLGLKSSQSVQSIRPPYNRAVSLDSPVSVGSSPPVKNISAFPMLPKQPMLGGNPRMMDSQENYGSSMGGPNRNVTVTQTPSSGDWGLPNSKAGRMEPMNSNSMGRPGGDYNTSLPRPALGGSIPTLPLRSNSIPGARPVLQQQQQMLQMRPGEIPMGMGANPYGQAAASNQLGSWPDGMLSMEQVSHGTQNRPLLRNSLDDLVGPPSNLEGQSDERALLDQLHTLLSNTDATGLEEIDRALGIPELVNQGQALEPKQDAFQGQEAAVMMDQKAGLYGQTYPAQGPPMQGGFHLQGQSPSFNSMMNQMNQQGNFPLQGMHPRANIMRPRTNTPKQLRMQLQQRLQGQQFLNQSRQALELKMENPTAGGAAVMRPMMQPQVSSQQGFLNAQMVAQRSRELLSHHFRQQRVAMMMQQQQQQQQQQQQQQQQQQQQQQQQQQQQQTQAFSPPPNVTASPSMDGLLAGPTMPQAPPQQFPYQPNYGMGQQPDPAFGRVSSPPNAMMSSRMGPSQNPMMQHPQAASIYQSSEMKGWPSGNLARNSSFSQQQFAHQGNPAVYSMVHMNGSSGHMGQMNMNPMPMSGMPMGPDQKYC
Sphingosine 1-phosphate receptor 1, sequence (P21453 whole entry): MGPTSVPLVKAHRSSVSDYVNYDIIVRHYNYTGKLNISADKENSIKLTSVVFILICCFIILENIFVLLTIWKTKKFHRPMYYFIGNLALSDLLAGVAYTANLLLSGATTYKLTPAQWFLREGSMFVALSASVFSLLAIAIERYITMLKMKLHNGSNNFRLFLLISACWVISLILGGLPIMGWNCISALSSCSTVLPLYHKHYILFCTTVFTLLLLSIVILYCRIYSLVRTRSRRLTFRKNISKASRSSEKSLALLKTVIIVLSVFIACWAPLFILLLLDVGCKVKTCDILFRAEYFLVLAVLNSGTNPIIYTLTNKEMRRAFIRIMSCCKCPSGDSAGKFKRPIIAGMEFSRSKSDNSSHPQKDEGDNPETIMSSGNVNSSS

COc1ccc(C(=O)/C(=C\c2ccco2)N2C=CC=CC2=C(C#N)C#N)cc1
IC50 (Melanocortin receptor 4): > 64.6 µM (inactive)
IC50 [1]: 18 µM
EC50 (Beta-galactosidase): > 31.5 µM (inactive)
AC50 (INS1): 5.51 µM (active)
IC50 [2]: 2.01 µM (active)
IC50 [3]: 5.93 µM (active)
IC50 [4]: 9.37 µM (active)
EC50 [5]: 7.21 µM (inconclusive)
EC50 [6]: 0.141 µM (active)
EC50 [7]: 12.3 µM (active)
IC50 [8]: > 64.6 µM (inactive)

Cc1c(C(=O)N2CCc3ccccc32)oc2ccccc12
IC50 [9]: > 100 µM (not active)
IC50 [10]: > 100 µM (inactive)
IC50 [11]: > 67.6 µM (inactive)

O=c1c2ccccc2c(-c2nnc(S)o2)nn1Cc1ccccc1
EC50 [12]: 63.6 µM (not active)
EC50 [13]: 10.3 µM (inactive)
EC50 [14]: 11.6 µM (not active)

CCOc1ccccc1C(=O)N1CCN(C(c2ccccc2)c2ccccc2)CC1
IC50 (HEK293 [15]): > 20 µM (inactive)
EC50 [16]: 13 µM (active)
EC50 (HEK293 [17]): 14.3 µM (active)
IC50 (HEK293 [18]): 15.7 µM (active)
IC50 (HEK293 [19]): > 20 µM (inactive)
IC50 (HEK293 [20]): > 20 µM (inactive)

COc1ccc(/C=C2/SC(=S)N(c3ccc(S(=O)(=O)Nc4nccs4)cc3)C2=O)cc1
IC50 [21]: 1.98 µM (active)
IC50 (SUMO-activating enzyme [22]): 5.9 µM (active)
IC50 (SUMO-activating enzyme [23]): 1.18 µM (active)

O=c1ccc2nccc3c4c(O)cccc4n1c23
EC50 [5]: 12.7 µM (active)
EC50 [6]: 11.9 µM (active)
IC50 [24]: > 80 µM (inactive)
EC50 [7]: 9.94 µM (active)

CCC(=O)N1c2ccccc2[C@@H](N(C(C)=O)c2ccccc2)C[C@H]1C
IC50 [24]: > 80 µM (inactive)

CCN(CC)CCNC(=O)c1ccc(NC(=O)c2cn(-c3ccc(F)cc3)nc2-c2cccc(OC)c2)cc1
AC50 [25]: 11.1 µM (active)
IC50 [26]: 14.6 µM (active)
IC50 [27]: 8.8 µM (active)
AC50 [28]: 15.8 µM (active)
EC50 [29]: 3.25 µM (active)
IC50 (Bcl-2-related protein A1): > 20 µM (inactive)
EC50 [30]: > 60 µM (not active)

COc1ccc(CC2(CO)CCN(Cc3cnn(C)c3)CC2)cc1
IC50 [9]: > 100 µM (not active)
IC50 [10]: > 100 µM (inactive)

O=C1C2CCCCC2C(=O)N1c1ncn[nH]1 (stereo not drawn)
IC50 [31]: > 100 µM (not active)
IC50 [32]: > 100 µM (inactive)

Clc1ccc2c(c1)C(N1CCNCC1)Cc1ccccc1S2 (stereo not drawn)
CC50 [33]: 8.65 µM (active)
EC50 (Vasopressin V1a receptor): 21.3 µM (not active)
CC50 [34]: 12 µM (active)
EC50 (Oxytocin receptor): > 9.97 µM (active)
CC50 [35]: 11.5 µM (active)
IC50 (cells): 15.5 µM (active)

Reference: ChEMBL document CHEMBL1201862, “PubChem BioAssay data set” (2004)
